Literature values in patent US7862843B2 (priority 2004, dated 2011).

Experiments:
[1] = tested on: prions
[2] = tested on: prions; remark: listed apart in the source

SMILES | Inactivating the infectivity of prions [1] | Infectivity lost ([2]; 1,000 ppm available chlorine, 4-16 hour exposure) | Inactivation of prions on surfaces ([2]; full strength, 20,000-50,000 ppm)
CC(C)=O [acetone] | ineffective |  | 
C=O [formalin] | ineffective |  | 
C1CO1 [ethylene oxide] | ineffective |  | 
CCO [ethanol] | ineffective |  | 
O=C1CCO1 [beta-propiolactone] | ineffective |  | 
[Na+].[O-]Cl [hypochlorite, sodium hypochlorite] |  | 10^4-10^5 units of infectivity | effective
